As usually defined, the GI50 is the concentration that inhibits growth by half. As usually defined, the EC50 is the concentration needed to bring the measured effect to its halfway point.

The values that follow come from patent publication US7321046B2, “Analogs of dictyostatin, intermediates therefor and methods of synthesis thereof” (University of Pittsburgh, priority 2002, dated 2008).

The subject of assay [1] is human ovarian carcinoma cells (1A9). In words: Antiproliferative assay (GI50, MTS). The note with it: for antiproliferative potency / GI50 values (in words): Table 1 (1A9 and mutant lines). It is filed as cell-based. The protocol: Representative analogs were examined for their antiproliferative activities against human ovarian carcinoma 1A9 cells and their paclitaxel-resistant mutants, 1A9/Ptx10 and 1A9/Ptx22.
[…] Cells were maintained in RPMI medium with 10% FBS in it, plated in tissue culture plates, and allowed to grow for 48-72 h before transferring them into 96-well plates. Cells were allowed to attach and grow for 48 h in 96-well plates after which they were treated with either control (DMSO) or drug in triplicate/quadruplicate. Cells were incubated with the compounds for 72 h. Cells were treated with MTS reagent before reading the plate in a Dynamax plate reader for determining the cell number. The fifty percent growth inhibition values (GI50 values) were calculated for the compounds against all the three cell lines.

The subject of the next assay is T1, Bovine brain tubulin.
T1 construct: Bovine brain tubulin (10 μM) in 0.2 M MSG, 15 min at 20° C
Briefly: Pelleting assay (tubulin assembly EC50 determination). In kind it is biochemical. The note with it: for % Tubulin polymerized by 50 μM test agent / EC50: tubulin 10 μM in 0.2 M MSG, 15 min at 20° C.; for EC50: concentration required to polymerize 50% of tubulin, read-out: EC50 (μM) ± SD (N). The protocol:
Dictyostatin and representative analogs were evaluated in a quantitative assay for their ability to promote tubulin polymerization. […] When the percent polymer formed was determined in the reactions, a comparison of the activities of all the analogs could be made.
The assay was performed under three different reaction conditions following the procedure reported earlier (Gapud et al., 2004). Reaction condition 1 included 0.2 M monosodium glutamate (MSG), 10 μM tubulin, 5% DMSO and varying concentrations of test agents. Reaction condition 2 included 0.8 M MSG, 400 μM GTP, 10 μM tubulin, 5% DMSO, and varying concentrations of test agents. Reaction condition 3 had 0.6 M MSG, 200 μM GTP, and 10 μM tubulin, and 5% DMSO, and varying concentrations of the test agents. The experimental protocol for all the three reaction conditions was the following. The reaction mixtures were incubated at room temperature (20-22° C.) for 15 min and spun for 10 min at 14,000 rpm in an Eppendorf microtube centrifuge. Aliquots of the supernatants were removed and assayed for protein content by the method of Lowry.

Assay [2] has as its system purified bovine brain tubulin. Briefly: Tubulin polymerization assay (turbidity). It is filed as biochemical. The note with it: tubulin 1 mg/mL ± MAPs ± GTP, agents at 10 and 40 μM, 0 to 30° C. On the procedure:
The abilities of the new compounds to cause tubulin polymerization were determined under reaction conditions consisting of purified bovine brain tubulin (1 mg/mL) in the presence or absence of microtubule-associated proteins (MAPs, 0.75 mg/mL) and GTP (100 μM). Test agents were initially screened at 10 and 40 μM. In these experiments, test agent-induced assembly of soluble tubulin into polymer, with respect to the presence and absence of cofactors and at different temperatures, was monitored in a multi-cuvette, temperature-controlled spectrophotometer via development of turbidity in the solution. The initial temperature was closely controlled at 0° C., then rapidly raised to 10° C., to 20° C., then finally to 30° C. to determine both the temperature at which a test agent induced assembly as well as the extent of agent-induced assembly. The temperature increases were followed by a rapid decrease in temperature back to 0° C. to determine the cold-stability of polymer formed.
Tubulin assembly was monitored turbidimetrically in Gilford 250 spectrophotometers equipped with electronic temperature controllers as described previously (ter Haar et al., 1996). The reaction mixtures without the compounds consisted of tubulin (1 mg/ml), heat-treated MAPs (0.75 mg/ml, if present), GTP (100 μM, if present), and 0.1M (4-morpholinyl)ethane sulfonate (MeS). Baselines were established after addition of all reaction components except the compounds to the cuvettes held at 0° C. Compounds, at 10 μM or 40 μM final concentration, were then added and each reaction mixture (0.25 mL final volume) was subjected to the indicated temperature changes.

Setting [3] is: Homo sapiens, Ovarian carcinoma cell, 72 h, read-out: GI50 ± S.D., 1A9 parental cells, 72 h incubation.

Molecules are shown by their SMILES. Like-named read-outs stand apart in the source and are kept apart here.

Consider `C=C/C=C\[C@H](C)[C@@H]1OC(=O)/C=C\C=C\[C@@H](C)[C@@H](O)C[C@H](O)/C=C\[C@H](C)[C@H](O)[C@@H](C)C[C@@H](C)CC[C@@H](O)[C@@H]1C` [dictyostatin-1, (8S,10S,14R,20R)-Tetrahydroxy-(7R,13S,15S,17S,21S)-pentamethyl-(22S)-((1S)-methylpenta-2,4-dienyl)oxacyclodocosa-3,5,11-trien-2-one, reference compound], for which, in assay [1] (setting [3]), the GI50 amounted to 0.69 ± 0.8 nM. For the same compound, in the assay on Bovine brain tubulin, the “% Tubulin polymerized by 50 μM test agent” value (“% Tubulin polymerized” below) came out at 99 ± 4% and the EC50 amounted to 3.1 ± 0.2 µM. Moreover, the “test agent-induced tubulin assembly, turbidity profile (in words)” value (shortened to “test agent-induced tubulin assembly”) in assay [2] is “far more potent than those of paclitaxel”.

As for `C=CC=CC(C)C1OC(=O)C=CC=CC(C)C(O)CC(O)C=CC(C)C(O)C(C)CCCCC(O)C1C` [Compound 79, (8S,10S,14R,20R)-Tetrahydroxy-(7R,13S,15S,21S)-tetramethyl-(22S)-((1S)-methylpenta-2,4-dienyl)-oxacyclodocosa-3,5,11-trien-2-one], the GI50 in assay [1] (setting [3]) was found to be 0.41 ± 0.52 nM. The “antiproliferative potency / GI50 values (in words)” value in assay [1] was “essentially equipotent to 1”. Also, in the assay with Bovine brain tubulin, the “% Tubulin polymerized” value is 91 ± 6% and the EC50 came out at 14 ± 7 µM. In addition, in assay [2], the “test agent-induced tubulin assembly” value was “especially potent among the analogs”.

As to `C=C/C=C\[C@H](C)[C@H](O)[C@@H](C)[C@H](O)CC[C@H](C)C[C@H](C)[C@@H](O)[C@@H](C)/C=C\[C@@H](O)C[C@H](O)[C@H](C)/C=C/C=C\C(=O)OC` [Compound 50, (2Z,4E,6R,7S,9S,10Z,12S,13R,14S,16S,19R,20S,21S,22S,23Z)-Methyl-7,9,13,19,21-penta-hydroxy-6,12,14,16,20,22-hexamethylhexacosa-2,4,10,23,25-pentaenoate], the GI50 in assay [1] (setting [3]) was 56 ± 16 nM. Besides, the “antiproliferative potency / GI50 values (in words)” value in assay [1] was “mid-nanomolar range”. For the same compound, in the assay with Bovine brain tubulin, the “percent polymer formed (in words)” value is “moderate activity”, the “% Tubulin polymerized” value was found to be 39 ± 7% and the EC50 is more than 50 µM. Also, the “test agent-induced tubulin assembly” value in assay [2] was “caused tubulin assembly at temperatures lower than 30 °C”.

Regarding `C=CC=CC(C)C1OC(=O)C=CC=CC(C)C(O)CC(O)C=CC(C)C(O)C(C)CC(C)CCC(O)C1C` [Compound 59, (8S,10S,14R,20S)-Tetrahydroxy-(7R,13S,15S,17S,21s)-pentamethyl-(22S)-((1S)-methylpenta-2,4-dienyl)-oxacyclodocosa-3,5,11-trien-2-one], the “antiproliferative potency / GI50 values (in words)” value in assay [1] was “mid-nanomolar range”. For the same compound, the GI50 in assay [1] (read-out: GI50 ± S.D., 1A9 parental cells, 72 h incubation) came out at 21 ± 14 nM. Also, in the assay on Bovine brain tubulin, the “percent polymer formed (in words)” value is reported as “moderate activity”, the “% Tubulin polymerized” value was 30 ± 2% and the EC50 is more than 50 µM. Moreover, in assay [2], the “test agent-induced tubulin assembly” value is “caused tubulin assembly at temperatures lower than 30 °C”.

As to `C=C/C=C\[C@H](C)[C@H](OC(N)=O)[C@@H](C)[C@H](O)[C@@H](C)C/C(C)=C\[C@H](C)[C@@H](O)[C@@H](C)/C=C\[C@@H](O)C[C@@H]1OC(=O)[C@H](C)[C@@H](O)[C@H]1C` [discodermolide, reference compound], the GI50 in assay [1] (setting [3]) was determined as 1.7 ± 1.2 nM. In addition, in the assay with Bovine brain tubulin, the “% Tubulin polymerized” value turned out to be 98 ± 5% and the EC50 amounted to 3.6 ± 0.4 µM. Also, in assay [2], the “test agent-induced tubulin assembly” value is on record as “far more potent than those of paclitaxel”.
